Results taken from patent US20220257646A1, “COMPOSITIONS AND METHODS FOR TREATING SKIN CONDITIONS” (The Regents of the University of California, priority 2019, published 2022).

Test system: P. acnes strains
Experiment: Porphyrin production by P. acnes strains in culture media (iron/cobalt supplemented or depleted)
Format: cell-based, Propionibacterium acnes

With `[Co]` [cobalt] the porphyrin production (depletion of cobalt, P. acnes (FIG. 5)) was “significantly promoted the porphyrin production”.

In the case of `[Fe]` [iron], the porphyrin production (acne associated P. acnes strains (FIG. 4)) is reported as “reduces porphyrin production”, the “chelator effect on porphyrin production” value (iron added back to iron depleted (chelated) media, P. acnes strains (FIG. 4)) is reported as “diminishes chelator effect” and the porphyrin production (iron depletion, acne associated P. acnes strains (FIG. 6)) is reported as “increases porphyrin production”. For the same molecule, the porphyrin production (iron supplemented in the media, P. acnes strains (FIG. 1)) was “low porphyrin production” and the “effect of iron depletion on porphyrin production” value (vitamin B12 supplemented conditions, acne associated P. acnes strains (FIG. 6)) was “remains”.
